What was measured:
MCF7 [1] = assay: Antiproliferative activity aganist human MCF7 cells incubated for 72 hrs by MTT assay; type: functional, cell-based; conditions: MCF7, 72 h
A-375 = assay: Antiproliferative activity aganist human A375 cells incubated for 72 hrs by MTT assay; type: functional, cell-based; conditions: A-375, 72 h
A549 [2] = assay: Antiproliferative activity aganist human A549 cells incubated for 72 hrs by MTT assay; type: functional, cell-based; conditions: A549, 72 h
Jurkat = assay: Antiproliferative activity aganist human Jurkat cells incubated for 72 hrs by MTT assay; type: functional, cell-based
[3] = Selectivity index, ratio of IC50 for human PBMC cells to IC50 for human Jurkat cells; type: toxicity; conditions: PBMC cells and Jurkat cells, read-out: Ratio IC50
[4] = biological target: Receptor tyrosine-protein kinase erbB-4 (Homo sapiens, UniProt Q15303); assay: Inhibition of recombinant human N-terminal GST-tagged HER4 (682 to 993 residues) expressed in baculovirus infected Sf9 insect cells using Poly (4:1 Glu, Tyr) peptide as substrate incubated for 1 hr by ADP-Glo assay
[5] = biological target: Insulin-like growth factor 1 receptor (Homo sapiens, UniProt P08069); assay: Inhibition of recombinant human N-terminal His-tagged IGF1R (960 to end residues) expressed in baculovirus infected Sf9 insect cells using IGF1Rtide as substrate incubated for 1 hr by ADP-Glo assay
[6] = biological target: Platelet-derived growth factor receptor alpha (Homo sapiens, UniProt P16234); assay: Inhibition of recombinant human N-terminal GST-tagged PDGFRalpha (550 to end residues) expressed in baculovirus infected Sf9 insect cells using Poly (4:1 Glu, Tyr) peptide as substrate incubated for 1 hr by ADP-Glo assay
[7] = biological target: Receptor tyrosine-protein kinase erbB-2 (Homo sapiens, UniProt P04626); assay: Inhibition of recombinant human N-terminal GST-tagged HER2 (676 to end residues) expressed in baculovirus infected Sf9 insect cells using Poly (4:1 Glu, Tyr) peptide as substrate incubated for 1 hr by ADP-Glo assay
[8] = biological target: Vascular endothelial growth factor receptor 2 (Homo sapiens, UniProt P35968); assay: Inhibition of recombinant human N-terminal GST-tagged KDR (789 to end residues) expressed in baculovirus infected Sf9 insect cells using Poly (4:1 Glu, Tyr) peptide as substrate incubated for 1 hr by ADP-Glo assay
PBMC = assay: Cytotoxicity against human PBMC cells assessed as reduction in cell viability incubated for 72 hrs by MTT assay; type: cell-based
Insulin receptor = Insulin receptor (Homo sapiens, UniProt P06213); assay: Inhibition of recombinant human N-terminal GST-tagged INSR (1011 to end residues) expressed in baculovirus infected Sf9 insect cells using Axltide as substrate incubated for 1 hr by ADP-Glo assay
MCF7 [9] = assay: Induction of apoptosis in human MCF7 cells at IC50 incubated for 24 hrs by Annexin V-FITC/ethidium homodimer 3 staining based fluorescence microscopic method relative to control; type: functional
[10] = biological target: Platelet-derived growth factor receptor beta (Homo sapiens, UniProt P09619); assay: Inhibition of recombinant human N-terminal GST-tagged PDGFRbeta (557 to end residues) expressed in baculovirus infected Sf9 insect cells using Poly (4:1 Glu, Tyr) peptide as substrate incubated for 1 hr by ADP-Glo assay
MCF7 [11] = assay: Induction of apoptosis in human MCF7 cells assessed as increase in apoptosis/necrosis cells at IC50 incubated for 24 hrs by Annexin V-FITC/ethidium homodimer 3 staining based fluorescence microscopic method relative to control; type: functional
A549 [12] = assay: Induction of apoptosis in human A549 cells assessed as increase in necrosis cells at IC50 incubated for 24 hrs by Annexin V-FITC/ethidium homodimer 3 staining based fluorescence microscopic method relative to control; type: functional
A549 [13] = assay: Induction of apoptosis in human A549 cells assessed as increase in apoptosis/necrosis cells at IC50 incubated for 24 hrs by Annexin V-FITC/ethidium homodimer 3 staining based fluorescence microscopic method relative to control; type: functional
A549 [14] = assay: Induction of apoptosis in human A549 cells at IC50 incubated for 24 hrs by Annexin V-FITC/ethidium homodimer 3 staining based fluorescence microscopic method relative to control; type: functional
MCF7 [15] = assay: Induction of apoptosis in human MCF7 cells assessed as increase in necrosis cells at IC50 incubated for 24 hrs by Annexin V-FITC/ethidium homodimer 3 staining based fluorescence microscopic method relative to control; type: functional
[16] = biological target: Epidermal growth factor receptor (Homo sapiens, UniProt P00533); assay: Inhibition of recombinant human N-terminal GST-tagged EGFR (695 to end residues) expressed in baculovirus infected Sf9 insect cells using Poly (4:1 Glu, Tyr) peptide as substrate incubated for 1 hr by ADP-Glo assay

Receptor tyrosine-protein kinase erbB-2, sequence (P04626 whole entry): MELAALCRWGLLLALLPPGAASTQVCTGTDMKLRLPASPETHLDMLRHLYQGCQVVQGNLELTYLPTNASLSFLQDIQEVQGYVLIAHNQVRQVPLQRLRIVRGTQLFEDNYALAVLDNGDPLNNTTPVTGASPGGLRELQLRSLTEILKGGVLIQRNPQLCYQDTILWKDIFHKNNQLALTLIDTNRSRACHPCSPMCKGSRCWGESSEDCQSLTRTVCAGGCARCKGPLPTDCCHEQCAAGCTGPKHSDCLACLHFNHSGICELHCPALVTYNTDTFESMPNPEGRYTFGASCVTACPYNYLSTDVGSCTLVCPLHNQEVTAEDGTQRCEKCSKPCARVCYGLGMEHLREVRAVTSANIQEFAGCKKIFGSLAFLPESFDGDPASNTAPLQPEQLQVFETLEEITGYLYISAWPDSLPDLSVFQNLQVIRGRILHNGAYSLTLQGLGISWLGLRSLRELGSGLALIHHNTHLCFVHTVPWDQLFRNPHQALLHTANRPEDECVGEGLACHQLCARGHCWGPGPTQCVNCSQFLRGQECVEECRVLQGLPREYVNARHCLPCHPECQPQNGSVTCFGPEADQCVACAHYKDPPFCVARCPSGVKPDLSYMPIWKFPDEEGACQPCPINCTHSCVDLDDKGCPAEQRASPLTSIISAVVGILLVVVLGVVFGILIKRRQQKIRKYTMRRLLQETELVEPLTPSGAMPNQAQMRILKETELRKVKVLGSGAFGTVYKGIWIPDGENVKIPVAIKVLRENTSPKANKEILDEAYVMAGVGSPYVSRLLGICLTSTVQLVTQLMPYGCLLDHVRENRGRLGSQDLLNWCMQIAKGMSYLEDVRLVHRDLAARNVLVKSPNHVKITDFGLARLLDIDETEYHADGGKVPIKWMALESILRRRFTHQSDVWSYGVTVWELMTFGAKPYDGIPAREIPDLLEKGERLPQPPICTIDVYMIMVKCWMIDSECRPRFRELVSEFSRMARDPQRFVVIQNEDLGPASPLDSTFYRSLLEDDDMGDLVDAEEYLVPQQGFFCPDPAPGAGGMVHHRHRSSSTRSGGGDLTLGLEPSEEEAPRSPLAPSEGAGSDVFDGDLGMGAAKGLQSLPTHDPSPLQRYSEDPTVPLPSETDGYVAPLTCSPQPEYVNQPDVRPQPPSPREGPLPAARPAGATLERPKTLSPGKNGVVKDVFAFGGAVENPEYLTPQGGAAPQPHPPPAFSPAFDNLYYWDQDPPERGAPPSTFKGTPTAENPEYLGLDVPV
Receptor tyrosine-protein kinase erbB-4, sequence (Q15303 whole entry, the tested form may be a part): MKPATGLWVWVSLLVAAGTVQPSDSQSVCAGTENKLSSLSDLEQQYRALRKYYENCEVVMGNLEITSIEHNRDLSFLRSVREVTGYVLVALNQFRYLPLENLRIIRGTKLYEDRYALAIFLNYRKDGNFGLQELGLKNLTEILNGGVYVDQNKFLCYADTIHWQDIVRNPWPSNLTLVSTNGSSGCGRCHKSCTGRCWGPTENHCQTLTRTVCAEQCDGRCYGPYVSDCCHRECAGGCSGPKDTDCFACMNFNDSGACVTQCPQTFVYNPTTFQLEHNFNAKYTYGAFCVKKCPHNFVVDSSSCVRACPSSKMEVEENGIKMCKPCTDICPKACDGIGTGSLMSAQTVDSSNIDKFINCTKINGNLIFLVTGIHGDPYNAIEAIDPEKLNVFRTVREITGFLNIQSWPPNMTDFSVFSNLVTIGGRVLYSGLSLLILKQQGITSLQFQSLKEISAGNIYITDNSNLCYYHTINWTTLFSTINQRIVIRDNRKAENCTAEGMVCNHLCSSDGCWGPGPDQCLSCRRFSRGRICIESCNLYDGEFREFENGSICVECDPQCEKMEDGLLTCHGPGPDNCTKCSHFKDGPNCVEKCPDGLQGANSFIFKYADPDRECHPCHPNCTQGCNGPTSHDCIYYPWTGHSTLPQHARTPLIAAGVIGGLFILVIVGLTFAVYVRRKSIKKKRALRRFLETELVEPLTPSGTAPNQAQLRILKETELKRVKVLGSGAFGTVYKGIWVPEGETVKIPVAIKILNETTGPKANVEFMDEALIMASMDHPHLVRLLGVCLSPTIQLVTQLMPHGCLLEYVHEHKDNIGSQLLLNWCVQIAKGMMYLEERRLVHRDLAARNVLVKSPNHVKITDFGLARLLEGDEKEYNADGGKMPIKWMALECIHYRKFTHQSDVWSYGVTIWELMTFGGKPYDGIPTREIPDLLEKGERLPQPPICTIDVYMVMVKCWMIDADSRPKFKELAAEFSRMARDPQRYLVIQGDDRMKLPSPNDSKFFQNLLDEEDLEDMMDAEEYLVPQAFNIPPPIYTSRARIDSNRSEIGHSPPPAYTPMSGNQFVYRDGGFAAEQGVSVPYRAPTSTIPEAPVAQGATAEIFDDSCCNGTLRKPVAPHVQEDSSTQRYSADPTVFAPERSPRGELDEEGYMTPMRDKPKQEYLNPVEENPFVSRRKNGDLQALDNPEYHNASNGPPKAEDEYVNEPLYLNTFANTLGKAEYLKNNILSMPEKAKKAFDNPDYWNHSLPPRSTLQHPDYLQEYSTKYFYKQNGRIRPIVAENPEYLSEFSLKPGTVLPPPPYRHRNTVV
Platelet-derived growth factor receptor alpha, sequence (P16234 whole entry): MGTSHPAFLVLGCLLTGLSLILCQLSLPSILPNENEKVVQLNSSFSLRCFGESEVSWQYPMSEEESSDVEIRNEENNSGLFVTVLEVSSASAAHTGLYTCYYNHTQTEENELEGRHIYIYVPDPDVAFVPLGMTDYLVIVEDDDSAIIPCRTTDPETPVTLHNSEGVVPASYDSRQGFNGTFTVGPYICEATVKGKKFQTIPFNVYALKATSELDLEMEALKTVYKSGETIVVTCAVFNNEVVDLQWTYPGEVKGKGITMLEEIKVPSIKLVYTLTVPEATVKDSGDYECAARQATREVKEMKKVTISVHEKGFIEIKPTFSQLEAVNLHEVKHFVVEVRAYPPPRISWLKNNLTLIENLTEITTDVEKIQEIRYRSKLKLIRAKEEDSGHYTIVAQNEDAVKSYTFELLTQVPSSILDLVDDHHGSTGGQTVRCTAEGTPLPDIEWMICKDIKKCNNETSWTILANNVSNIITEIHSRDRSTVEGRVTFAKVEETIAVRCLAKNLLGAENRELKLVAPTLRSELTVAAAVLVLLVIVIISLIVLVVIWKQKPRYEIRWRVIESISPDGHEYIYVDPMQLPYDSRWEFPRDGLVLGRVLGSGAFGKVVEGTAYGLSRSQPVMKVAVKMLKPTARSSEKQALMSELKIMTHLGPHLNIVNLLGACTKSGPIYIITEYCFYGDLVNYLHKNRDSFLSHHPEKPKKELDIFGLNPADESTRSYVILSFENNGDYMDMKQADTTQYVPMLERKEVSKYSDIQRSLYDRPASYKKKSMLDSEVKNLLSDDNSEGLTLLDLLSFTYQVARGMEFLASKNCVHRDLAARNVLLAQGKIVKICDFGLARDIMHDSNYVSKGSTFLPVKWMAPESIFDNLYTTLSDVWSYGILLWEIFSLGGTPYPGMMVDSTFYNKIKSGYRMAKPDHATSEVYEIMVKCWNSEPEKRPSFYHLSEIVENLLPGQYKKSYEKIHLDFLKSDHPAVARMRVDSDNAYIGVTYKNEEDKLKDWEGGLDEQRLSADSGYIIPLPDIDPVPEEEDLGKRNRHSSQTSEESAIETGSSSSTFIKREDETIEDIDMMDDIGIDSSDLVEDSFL
Insulin-like growth factor 1 receptor, sequence (P08069 31-736 limits assumed): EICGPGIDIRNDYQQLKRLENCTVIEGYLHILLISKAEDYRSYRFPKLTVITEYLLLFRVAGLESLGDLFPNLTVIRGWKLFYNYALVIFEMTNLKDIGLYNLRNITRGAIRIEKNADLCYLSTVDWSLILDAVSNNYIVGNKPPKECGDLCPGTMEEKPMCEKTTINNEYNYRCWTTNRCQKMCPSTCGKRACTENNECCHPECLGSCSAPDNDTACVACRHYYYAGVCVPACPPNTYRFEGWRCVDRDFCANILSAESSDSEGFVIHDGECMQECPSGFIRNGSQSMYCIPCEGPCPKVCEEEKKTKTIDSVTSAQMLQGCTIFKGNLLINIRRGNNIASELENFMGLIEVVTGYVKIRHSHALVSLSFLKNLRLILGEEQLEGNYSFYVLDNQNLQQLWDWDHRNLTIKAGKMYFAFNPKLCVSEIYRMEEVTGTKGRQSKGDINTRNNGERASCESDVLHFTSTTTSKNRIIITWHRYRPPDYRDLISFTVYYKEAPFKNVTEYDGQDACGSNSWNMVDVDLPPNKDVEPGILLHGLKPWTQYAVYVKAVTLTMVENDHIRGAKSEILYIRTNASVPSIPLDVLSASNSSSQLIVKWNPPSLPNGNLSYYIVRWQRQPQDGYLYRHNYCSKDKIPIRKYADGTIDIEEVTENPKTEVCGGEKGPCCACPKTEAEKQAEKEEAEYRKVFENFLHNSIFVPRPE
Insulin-like growth factor 1 receptor, sequence (P08069 741-1367 limits assumed): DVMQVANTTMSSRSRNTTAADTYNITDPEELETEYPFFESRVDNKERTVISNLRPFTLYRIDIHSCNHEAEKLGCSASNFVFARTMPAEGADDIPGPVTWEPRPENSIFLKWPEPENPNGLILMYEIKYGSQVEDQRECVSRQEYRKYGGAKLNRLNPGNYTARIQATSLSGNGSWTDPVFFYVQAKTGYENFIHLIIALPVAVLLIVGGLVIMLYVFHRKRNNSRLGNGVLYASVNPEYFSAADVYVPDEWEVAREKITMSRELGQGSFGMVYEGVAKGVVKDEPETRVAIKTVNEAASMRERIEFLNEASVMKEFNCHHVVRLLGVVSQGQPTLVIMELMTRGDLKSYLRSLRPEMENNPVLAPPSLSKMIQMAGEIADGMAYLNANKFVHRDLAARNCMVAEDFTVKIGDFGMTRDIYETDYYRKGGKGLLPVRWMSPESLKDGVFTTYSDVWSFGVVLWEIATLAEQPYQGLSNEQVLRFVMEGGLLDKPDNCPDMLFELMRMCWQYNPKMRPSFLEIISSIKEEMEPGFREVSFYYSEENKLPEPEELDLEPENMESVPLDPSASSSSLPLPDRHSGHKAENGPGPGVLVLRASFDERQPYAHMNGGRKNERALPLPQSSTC

| SMILES | IC50 (MCF7 [1]) [µM] | IC50 (A-375) [µM] | IC50 (A549 [2]) [µM] | further results |
| --- | --- | --- | --- | --- |
| Clc1ccc(C2CC(c3ccc(N4CCCCC4)cc3)=NN2c2nc(-c3ccc4ccccc4c3)cs2)cc1 (stereo not drawn) | > 100 | > 100 | > 100 | – |
| COc1ccc(-c2csc(N3N=C(c4ccc(N5CCCCC5)cc4)CC3c3ccc(Cl)cc3)n2)cc1 (stereo not drawn) | > 100 | > 100 | > 100 | – |
| CS(=O)(=O)c1ccc(-c2csc(N3N=C(c4ccc(N5CCCCC5)cc4)CC3c3ccc(Cl)cc3)n2)cc1 (stereo not drawn) | > 100 | > 100 | > 100 | – |
| CS(=O)(=O)c1ccc(-c2csc(N3N=C(c4ccc(N5CCOCC5)cc4)CC3c3ccc(Cl)cc3)n2)cc1 (stereo not drawn) | 67.2 | > 100 | 10.7 | – |
| NC(=S)N1N=C(c2ccc(N3CCCCC3)cc2)CC1c1ccc(Cl)cc1 (stereo not drawn) | 22.3 | > 100 | 33.8 | – |
| FC(F)(F)c1ccc(-c2csc(N3N=C(c4ccc(N5CCOCC5)cc4)CC3c3ccc(Cl)cc3)n2)cc1 (stereo not drawn) | > 100 | > 100 | 39.3 | – |
| Fc1ccc(-c2csc(N3N=C(c4ccc(N5CCCCC5)cc4)CC3c3ccc(Cl)cc3)n2)cc1 (stereo not drawn) | 23.1 | 71.4 | 70.2 | – |
| Clc1ccc(C2CC(c3ccc(N4CCOCC4)cc3)=NN2c2nc(-c3ccccc3)cs2)cc1 (stereo not drawn) | 52.1 | > 100 | 76.5 | – |
| Clc1ccc(C2CC(c3ccc(N4CCOCC4)cc3)=NN2c2nc(-c3ccc(Br)cc3)cs2)cc1 (stereo not drawn) | 70.6 | > 100 | 94.3 | – |
| O=[N+]([O-])c1ccc(-c2csc(N3N=C(c4ccc(N5CCOCC5)cc4)CC3c3ccc(Cl)cc3)n2)cc1 (stereo not drawn) | > 100 | > 100 | > 100 | – |
| NC(=S)N1N=C(c2ccc(N3CCOCC3)cc2)CC1c1ccc(Cl)cc1 (stereo not drawn) | 37.4 | > 100 | > 100 | – |
| Clc1ccc(C2CC(c3ccc(N4CCOCC4)cc3)=NN2c2nc(-c3ccc4ccccc4c3)cs2)cc1 (stereo not drawn) | > 100 | > 100 | > 100 | – |
| Clc1ccc(C2CC(c3ccc(N4CCCCC4)cc3)=NN2c2nc(-c3ccc(Br)cc3)cs2)cc1 (stereo not drawn) | > 100 | > 100 | 39.7 | – |
| N#Cc1ccc(-c2csc(N3N=C(c4ccc(N5CCOCC5)cc4)CC3c3ccc(Cl)cc3)n2)cc1 (stereo not drawn) | 8.05 | 53.5 | 10.8 | IC50 (Jurkat): 41 µM; selectivity ratio [3]: > 10; IC50 [4]: 4.68 µM; IC50 [5]: 10.3 µM; IC50 [6]: > 30 µM; IC50 [7]: 2.28 µM; IC50 [8]: 10.8 µM; IC50 (PBMC): 299 µM; IC50 (Insulin receptor): > 30 µM; Activity (MCF7 [9]): 51%; IC50 [10]: > 30 µM; Activity (MCF7 [11]): 32%; Activity (A549 [12]): 13%; Activity (A549 [13]): 19%; Activity (A549 [14]): 68%; Activity (MCF7 [15]): 27% |
| Fc1ccc(-c2csc(N3N=C(c4ccc(N5CCOCC5)cc4)CC3c3ccc(Cl)cc3)n2)cc1 (stereo not drawn) | 9.59 | 84.4 | 8.95 | IC50 (Jurkat): 23.4 µM; selectivity ratio [3]: > 10; IC50 [4]: 1.5 µM; IC50 [5]: 3.28 µM; IC50 [6]: > 30 µM; IC50 [7]: 6.96 µM; IC50 [8]: 10.5 µM; IC50 (PBMC): > 300 µM; IC50 (Insulin receptor): 9.79 µM; Activity (MCF7 [9]): 78%; IC50 [10]: > 30 µM; IC50 [16]: 23.3 µM; Activity (MCF7 [11]): 14%; Activity (A549 [12]): 12%; Activity (A549 [13]): 23%; Activity (A549 [14]): 65%; Activity (MCF7 [15]): 8% |
| FC(F)(F)c1ccc(-c2csc(N3N=C(c4ccc(N5CCCCC5)cc4)CC3c3ccc(Cl)cc3)n2)cc1 (stereo not drawn) | 23.7 | 64.2 | 42 | – |
| O=[N+]([O-])c1ccc(-c2csc(N3N=C(c4ccc(N5CCCCC5)cc4)CC3c3ccc(Cl)cc3)n2)cc1 (stereo not drawn) | > 100 | > 100 | > 100 | – |
| Cc1ccc(-c2csc(N3N=C(c4ccc(N5CCOCC5)cc4)CC3c3ccc(Cl)cc3)n2)cc1 (stereo not drawn) | > 100 | > 100 | > 100 | – |
| Clc1ccc(-c2csc(N3N=C(c4ccc(N5CCCCC5)cc4)CC3c3ccc(Cl)cc3)n2)cc1 (stereo not drawn) | > 100 | > 100 | 46.4 | – |
| Cc1ccc(-c2csc(N3N=C(c4ccc(N5CCCCC5)cc4)CC3c3ccc(Cl)cc3)n2)cc1 (stereo not drawn) | > 100 | > 100 | > 100 | – |
| N#Cc1ccc(-c2csc(N3N=C(c4ccc(N5CCCCC5)cc4)CC3c3ccc(Cl)cc3)n2)cc1 (stereo not drawn) | 9.76 | 38.7 | 11.2 | IC50 (Jurkat): 29.5 µM; selectivity ratio [3]: > 10; IC50 [4]: 29 µM; IC50 [5]: > 30 µM; IC50 [6]: > 30 µM; IC50 [7]: > 30 µM; IC50 [8]: 25.6 µM; IC50 (PBMC): 299 µM; IC50 (Insulin receptor): > 30 µM; Activity (MCF7 [9]): 63%; IC50 [10]: > 30 µM; IC50 [16]: 4.71 µM; Activity (MCF7 [11]): 27%; Activity (A549 [12]): 8%; Activity (A549 [13]): 15%; Activity (A549 [14]): 77%; Activity (MCF7 [15]): 10% |
| Clc1ccc(-c2csc(N3N=C(c4ccc(N5CCOCC5)cc4)CC3c3ccc(Cl)cc3)n2)cc1 (stereo not drawn) | 14.9 | 75.9 | 19 | – |
| Clc1ccc(C2CC(c3ccc(N4CCCCC4)cc3)=NN2c2nc(-c3ccccc3)cs2)cc1 (stereo not drawn) | 28.4 | 65.8 | 64.2 | – |
| COc1ccc(-c2csc(N3N=C(c4ccc(N5CCOCC5)cc4)CC3c3ccc(Cl)cc3)n2)cc1 (stereo not drawn) | > 100 | > 100 | > 100 | – |
| C#Cc1cccc(Nc2ncnc3cc(OCCOC)c(OCCOC)cc23)c1 [ERLOTINIB] | 8.24 | 27.3 | 22.4 | IC50 (Jurkat): 12.1 µM; IC50 (PBMC): 39.3 µM; Activity (MCF7 [9]): 66%; Activity (MCF7 [11]): 21%; Activity (A549 [12]): 9%; Activity (A549 [13]): 19%; Activity (A549 [14]): 72%; Activity (MCF7 [15]): 13% |

Source: ChEMBL document CHEMBL4406839, “Design, synthesis and biological evaluation of a new series of thiazolyl-pyrazolines as dual EGFR and HER2 inhibitors” (Eur J Med Chem, 2019)
